Measured values reported in the supplement of paper PMC10307832.

Columns and labels:
Experiment in all cases: relative viability (nuclei count vs DMSO), 5 days (fraction); higher = more cells survive
IU1-47 + Phenformin = compound: CC1=CC(=C(N1C2=CC=C(C=C2)Cl)C)C(=O)CN3CCCCC3 [IU1-47] + N=C(N)NC(=N)NCCc1ccccc1 [Phenformin] (partner 250 µM)
In short: (§1)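 Relative viability is defined as nuclei in treated wells over nuclei in vehicle wells. Duplicate plates were run and medians reported. Lung cancer cell lines in 1536-well plates were dosed by pin tool one day after seeding, with one drug or with a fixed anchor-drug dose plus five library-drug doses (not always all listed) in √10 steps, and nuclei were counted after 5 days.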

IU1-47 + OSI-027 = compound: CC1=CC(=C(N1C2=CC=C(C=C2)Cl)C)C(=O)CN3CCCCC3 [IU1-47] + COc1cccc2cc(-c3nc([C@H]4CC[C@H](C(=O)O)CC4)n4ncnc(N)c34)[nH]c12 [OSI-027] (partner 0.5 µM)
In short: as §1

IU1-47 + Linsitinib = compound: CC1=CC(=C(N1C2=CC=C(C=C2)Cl)C)C(=O)CN3CCCCC3 [IU1-47] + C[C@]1(O)C[C@@H](c2nc(-c3ccc4ccc(-c5ccccc5)nc4c3)c3c(N)nccn32)C1 [Linsitinib] (partner 1 µM)
In short: as §1

FG-4592 + Luminespib = compound: Cc1nc(C(=O)NCC(=O)O)c(O)c2ccc(Oc3ccccc3)cc12 [FG-4592] + CCNC(=O)c1noc(-c2cc(C(C)C)c(O)cc2O)c1-c1ccc(CN2CCOCC2)cc1 [Luminespib] (partner 0.01 µM)
In short: as §1

Cell Line | relative viability (IU1-47 + Phenformin; first compound 0.08 µM) | relative viability (IU1-47 + Phenformin; first compound 0.253 µM) | relative viability (IU1-47 + Phenformin; first compound 0.8 µM) | relative viability (IU1-47 + Phenformin; first compound 2.53 µM) | relative viability (IU1-47 + Phenformin; first compound 8 µM) | relative viability (IU1-47 + OSI-027; first compound 0.08 µM) | relative viability (IU1-47 + OSI-027; first compound 0.253 µM) | relative viability (IU1-47 + OSI-027; first compound 0.8 µM) | relative viability (IU1-47 + OSI-027; first compound 2.53 µM) | relative viability (IU1-47 + OSI-027; first compound 8 µM) | relative viability (IU1-47 + Linsitinib; first compound 0.08 µM) | relative viability (IU1-47 + Linsitinib; first compound 0.253 µM) | relative viability (IU1-47 + Linsitinib; first compound 0.8 µM) | relative viability (IU1-47 + Linsitinib; first compound 2.53 µM) | relative viability (IU1-47 + Linsitinib; first compound 8 µM) | relative viability (FG-4592 + Luminespib; first compound 0.08 µM) | relative viability (FG-4592 + Luminespib; first compound 0.253 µM) | relative viability (FG-4592 + Luminespib; first compound 0.8 µM) | relative viability (FG-4592 + Luminespib; first compound 2.53 µM) | relative viability (FG-4592 + Luminespib; first compound 8 µM)
EKVX | 0.24 | 0.262 | 0.263 | 0.259 | 0.252 | 0.858 | 0.862 | 0.726 | 0.658 | 0.828 | 1.19 | 1.18 | 0.943 | 1.1 | 0.861 | 0.842 | 0.807 | 0.81 | 0.891 | 0.9
NCI-H2087 | 0.469 | 0.503 | 0.548 |  | 0.441 | 0.834 | 0.582 | 0.506 |  | 0.531 | 0.947 | 0.953 | 0.93 | 1.14 | 1 | 0.196 | 0.151 | 0.142 | 0.151 | 0.148
LK-2 | 0.467 | 0.504 | 0.432 | 0.579 | 0.239 | 0.219 | 0.199 | 0.184 | 0.188 | 0.184 | 0.742 | 0.697 | 0.592 | 0.335 | 0.416 | 0.227 | 0.168 |  | 0.146 | 0.177
NCI-H1437 | 0.337 | 0.272 | 0.25 | 0.341 | 0.297 | 0.873 | 0.886 | 0.92 | 0.854 | 0.815 | 1.11 | 1.02 | 0.959 | 1.01 | 0.704 | 1.21 | 1.11 | 1.27 | 0.984 | 0.95
